{"source": "ChEMBL document CHEMBL1629688", "about": "“A collection of caged compounds for probing roles of local translation in neurobiology” (Bioorg Med Chem, 2010)", "tested_on": "Ribosome", "assay": "Inhibition of ribosome peptidyl transferase site in rabbit reticulocytes assessed as inhibition of translation using firefly luciferase DNA as template at 0.8 to 80 uM after 1 hr by luciferase assay", "format": "subcellular", "conditions": "Oryctolagus cuniculus", "note": "Calls of active or inactive are those of the source. The rule behind the calls is not given here."}
{"compound": "CCN(CC)c1ccc2c(COC(=O)N3C[C@@H](O)[C@H](OC(C)=O)[C@@H]3Cc3ccc(OC)cc3)cc(=O)oc2c1", "values": [{"measurement": "inhibition", "value": "Active"}]}
